In patent US20230312576A1, “4-(7H-PYRROLO[2,3-D]PYRIMIDIN-4-YL)-3,6-DIHYDROPYRIDINE-1-(2H)-CARBOXAMIDE DERIVATIVES AS LIMK AND/OR ROCK KINASES INHIBITORS FOR USE IN THE TREATMENT OF CANCER” (CENTRE NATIONAL DE LA RECHERCHE SCIENTIFIQUE, priority 2020, published 2023):
Read-outs that look alike come from different tables or passages of the source.

Columns and labels:
LIMK1 = LIMK1 (Homo sapiens (Human), UniProt P53667); assay: Lanthascreen Eu binding assay (TR-FRET), inhibition of LIMK1
LIMK2 = LIMK2 (Homo sapiens (Human), UniProt P53671); assay: Lanthascreen Eu binding assay (TR-FRET), inhibition of LIMK2
ROCK1 = ROCK1 (Homo sapiens (Human), UniProt Q13464); assay: Z'Lyte assay, ROCK1 inhibition at a single concentration; format: biochemical
ROCK2 = ROCK2 (Homo sapiens (Human), UniProt O75116); assay: Z'Lyte assay, ROCK2 inhibition at a single concentration; format: biochemical
[1] = tested on: cofilin phosphorylation, HeLa cells; assay: Cofilin phosphorylation by Western Blot (anti-phospho-Ser3-cofilin) in HeLa cells; format: cell-based; settings: for inhibition at 25 µM: Homo sapiens; for inhibition at 25 µM / % inhibition Cofilin phosphorylation HeLa cells treated 2 h with 25 uM of inhibitor: 2 h
[2] = tested on: cofilin phosphorylation, MPNST88-14 cells; assay: Cofilin phosphorylation by Western Blot in MPNST88-14 cells; format: cell-based
[3] = tested on: cofilin phosphorylation, MPNST90-8 cells; assay: Cofilin phosphorylation by Western Blot in MPNST90-8 cells; format: cell-based; settings: for inhibition at 25 µM: read-out: % inhibition Cofilin phosphorylation MPNST90-8 cells treated 2 h with 25 uM of inhibitor, MPNST90-8 cells, 25 uM
[4] = tested on: SOD1-G93A transgenic mice; assay: In vivo assay on a mouse model of ALS; settings: 10 mg/Kg intraperitoneal, 2 times a week from week 8
MPNST cell line = settings: published data; cited from earlier work
HeLa cells = assay: Cytotoxicity, CellTiter-Glo Luminescent Cell Viability assay, HeLa; format: cell-based; settings: 48 hours, read-out: EC50 (inhibitor concentration corresponding to half of live cells)
LIMK1 and LIMK2 = assay: Lanthascreen Eu binding assay, Ki without LIMK isoform; settings: LIMK isoform not stated
[5] = read-out: % inhibition (ROCK1) 1 uM, 1 uM
[6] = read-out: % inhibition (ROCK2) 1 uM, 1 uM
[7] = HeLa, read-out: % inhibition of cofilin phosphorylation in HeLa cells (treatment 2 h, at 25 μM), Table 2, normalized to the control condition DMSO
[8] = read-out: % inhibition Cofilin phosphorylation HeLa cells treated 2 h with 25 uM of inhibitor, HeLa cells, 25 uM
[9] = read-out: % inhibition Cofilin phosphorylation MPNST88-14 cells treated 2 h with 25 uM of inhibitor, MPNST88-14 cells, 25 uM
[10] = read-out: % inhibition (ROCK1) 1 uM
[11] = read-out: % inhibition (ROCK2) 1 uM
[12] = HeLa, read-out: % inhibition Cofilin phosphorylation HeLa cells treated 2 h with 25 uM of inhibitor
[13] = HeLa, read-out: % inhibition of cofilin phosphorylation in HeLa cells (treatment 2 h, at 25 μM)
[14] = 2 h, read-out: % inhibition Cofilin phosphorylation MPNST88-14 cells treated 2 h with 25 uM of inhibitor
[15] = Table 2, normalized to the control condition DMSO

ROCK1, sequence (Q13464 whole entry): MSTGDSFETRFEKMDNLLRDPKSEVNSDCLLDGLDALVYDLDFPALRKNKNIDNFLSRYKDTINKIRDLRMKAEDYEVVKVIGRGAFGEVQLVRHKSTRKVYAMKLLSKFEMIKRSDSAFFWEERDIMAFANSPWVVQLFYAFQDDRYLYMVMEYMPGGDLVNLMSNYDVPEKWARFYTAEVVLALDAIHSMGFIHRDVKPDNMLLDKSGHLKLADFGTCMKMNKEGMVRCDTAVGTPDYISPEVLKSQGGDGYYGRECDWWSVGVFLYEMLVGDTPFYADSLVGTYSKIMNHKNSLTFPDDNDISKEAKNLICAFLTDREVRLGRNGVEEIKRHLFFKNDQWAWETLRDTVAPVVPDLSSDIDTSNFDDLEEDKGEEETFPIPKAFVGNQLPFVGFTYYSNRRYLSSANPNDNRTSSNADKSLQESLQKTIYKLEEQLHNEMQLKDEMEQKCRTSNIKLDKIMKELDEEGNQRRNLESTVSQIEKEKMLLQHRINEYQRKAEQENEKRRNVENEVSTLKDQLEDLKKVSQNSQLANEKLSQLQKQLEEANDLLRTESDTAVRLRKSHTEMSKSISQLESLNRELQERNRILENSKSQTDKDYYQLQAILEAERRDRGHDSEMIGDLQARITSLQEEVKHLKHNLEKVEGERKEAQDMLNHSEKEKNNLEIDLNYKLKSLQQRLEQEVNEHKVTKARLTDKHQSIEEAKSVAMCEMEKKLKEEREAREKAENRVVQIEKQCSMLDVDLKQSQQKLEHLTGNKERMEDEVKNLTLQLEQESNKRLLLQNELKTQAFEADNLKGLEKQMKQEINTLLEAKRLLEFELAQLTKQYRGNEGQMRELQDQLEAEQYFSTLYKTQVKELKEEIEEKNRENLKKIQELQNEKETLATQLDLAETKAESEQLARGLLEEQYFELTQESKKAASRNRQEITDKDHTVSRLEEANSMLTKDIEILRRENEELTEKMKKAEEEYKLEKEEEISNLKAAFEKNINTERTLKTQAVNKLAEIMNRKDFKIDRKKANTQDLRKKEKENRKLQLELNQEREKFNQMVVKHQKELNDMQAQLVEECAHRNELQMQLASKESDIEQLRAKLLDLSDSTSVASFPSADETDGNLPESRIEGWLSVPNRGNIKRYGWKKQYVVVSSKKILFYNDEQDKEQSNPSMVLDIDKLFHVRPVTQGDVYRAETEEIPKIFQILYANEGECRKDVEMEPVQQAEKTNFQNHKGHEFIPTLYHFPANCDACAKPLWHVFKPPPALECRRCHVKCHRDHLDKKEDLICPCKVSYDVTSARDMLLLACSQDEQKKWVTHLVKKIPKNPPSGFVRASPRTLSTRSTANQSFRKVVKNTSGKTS
LIMK1, sequence (P53667 whole entry): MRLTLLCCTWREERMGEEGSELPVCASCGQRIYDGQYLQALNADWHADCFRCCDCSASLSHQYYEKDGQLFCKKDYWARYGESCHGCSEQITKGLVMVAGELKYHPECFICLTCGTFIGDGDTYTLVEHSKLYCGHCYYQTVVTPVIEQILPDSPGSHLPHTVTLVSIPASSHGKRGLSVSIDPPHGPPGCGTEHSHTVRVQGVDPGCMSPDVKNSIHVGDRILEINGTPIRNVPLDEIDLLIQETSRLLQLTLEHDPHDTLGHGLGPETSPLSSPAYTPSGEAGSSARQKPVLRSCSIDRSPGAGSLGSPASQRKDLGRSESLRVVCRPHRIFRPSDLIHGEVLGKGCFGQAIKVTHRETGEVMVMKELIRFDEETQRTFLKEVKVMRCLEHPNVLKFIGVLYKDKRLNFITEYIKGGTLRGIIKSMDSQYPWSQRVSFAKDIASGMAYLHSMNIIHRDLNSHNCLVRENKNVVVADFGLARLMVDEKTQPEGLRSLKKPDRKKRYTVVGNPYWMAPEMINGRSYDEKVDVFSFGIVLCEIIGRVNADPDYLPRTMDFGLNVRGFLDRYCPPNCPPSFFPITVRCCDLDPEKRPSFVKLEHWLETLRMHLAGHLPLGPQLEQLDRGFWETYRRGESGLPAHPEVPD
ROCK2, sequence (O75116 whole entry): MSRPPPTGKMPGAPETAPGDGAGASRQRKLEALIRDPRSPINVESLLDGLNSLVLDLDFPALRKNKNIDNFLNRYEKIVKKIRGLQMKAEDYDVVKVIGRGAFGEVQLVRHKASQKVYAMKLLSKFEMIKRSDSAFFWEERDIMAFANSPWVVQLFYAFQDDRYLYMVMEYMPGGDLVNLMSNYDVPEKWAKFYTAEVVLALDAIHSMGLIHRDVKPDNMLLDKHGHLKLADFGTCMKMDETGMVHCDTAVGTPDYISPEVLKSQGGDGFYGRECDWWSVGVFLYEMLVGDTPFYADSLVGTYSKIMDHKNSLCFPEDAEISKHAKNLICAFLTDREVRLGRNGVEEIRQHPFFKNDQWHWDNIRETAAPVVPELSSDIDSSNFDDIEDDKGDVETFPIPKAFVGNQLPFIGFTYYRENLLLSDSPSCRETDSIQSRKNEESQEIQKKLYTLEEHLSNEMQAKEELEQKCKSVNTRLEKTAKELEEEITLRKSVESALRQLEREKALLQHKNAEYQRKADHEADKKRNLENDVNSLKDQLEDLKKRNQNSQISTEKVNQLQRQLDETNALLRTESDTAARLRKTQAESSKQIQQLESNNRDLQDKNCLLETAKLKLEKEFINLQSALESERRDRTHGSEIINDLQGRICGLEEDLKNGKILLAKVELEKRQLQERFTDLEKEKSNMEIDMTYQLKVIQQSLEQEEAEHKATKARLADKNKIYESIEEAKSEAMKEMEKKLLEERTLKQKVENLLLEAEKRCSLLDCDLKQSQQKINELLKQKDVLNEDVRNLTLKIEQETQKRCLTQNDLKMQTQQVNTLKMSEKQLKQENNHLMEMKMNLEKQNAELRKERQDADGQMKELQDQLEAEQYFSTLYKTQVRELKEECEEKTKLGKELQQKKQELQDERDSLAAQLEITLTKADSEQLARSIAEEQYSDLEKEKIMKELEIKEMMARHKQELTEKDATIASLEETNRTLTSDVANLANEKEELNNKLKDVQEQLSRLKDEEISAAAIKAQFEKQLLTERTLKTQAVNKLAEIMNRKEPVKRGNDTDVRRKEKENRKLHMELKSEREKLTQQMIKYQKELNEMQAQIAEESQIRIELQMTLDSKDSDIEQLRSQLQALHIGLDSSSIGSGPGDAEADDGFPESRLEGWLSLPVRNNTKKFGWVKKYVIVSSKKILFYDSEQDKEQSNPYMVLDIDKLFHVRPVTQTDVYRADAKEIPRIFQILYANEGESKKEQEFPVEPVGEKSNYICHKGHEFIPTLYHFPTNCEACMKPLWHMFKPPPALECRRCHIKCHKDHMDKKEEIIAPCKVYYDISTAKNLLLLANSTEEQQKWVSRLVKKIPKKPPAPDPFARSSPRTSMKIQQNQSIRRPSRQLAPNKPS
LIMK2, sequence (P53671 whole entry): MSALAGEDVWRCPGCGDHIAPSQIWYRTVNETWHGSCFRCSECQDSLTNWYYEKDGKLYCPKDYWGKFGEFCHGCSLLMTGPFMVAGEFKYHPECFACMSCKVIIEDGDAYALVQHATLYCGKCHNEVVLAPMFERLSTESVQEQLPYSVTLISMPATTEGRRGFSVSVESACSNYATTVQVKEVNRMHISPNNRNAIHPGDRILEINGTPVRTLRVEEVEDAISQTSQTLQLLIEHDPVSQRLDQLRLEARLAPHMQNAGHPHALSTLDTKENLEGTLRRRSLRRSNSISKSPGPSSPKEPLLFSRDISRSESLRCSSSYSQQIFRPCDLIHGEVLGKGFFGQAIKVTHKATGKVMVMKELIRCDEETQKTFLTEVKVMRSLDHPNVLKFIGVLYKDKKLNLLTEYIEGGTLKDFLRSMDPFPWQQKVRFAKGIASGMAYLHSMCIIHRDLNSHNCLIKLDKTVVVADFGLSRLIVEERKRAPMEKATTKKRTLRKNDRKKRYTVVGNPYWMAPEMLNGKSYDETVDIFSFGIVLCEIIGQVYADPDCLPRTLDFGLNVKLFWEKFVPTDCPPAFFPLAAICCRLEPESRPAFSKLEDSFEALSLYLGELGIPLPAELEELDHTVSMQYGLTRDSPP

SMILES	Ki (LIMK1; Lanthascreen Eu binding assay) [nM]	Ki (LIMK2; Lanthascreen Eu binding assay) [nM]	inhibition at 1 µM (ROCK1; [5]) [%]	inhibition at 1 µM (ROCK2; [6]) [%]	inhibition at 25 µM [1, 7] [%]	inhibition at 25 µM [1, 8] [%]	inhibition at 25 µM [2, 9] [%]	inhibition at 1 µM (ROCK1; [10]) [%]	inhibition at 1 µM (ROCK2; [11]) [%]	further results
Cc1c[nH]c2ncnc(C3=CC(C)N(C(=O)Nc4cccc(F)c4)C(C)C3)c12 (centres unmarked) [Compound 57, N-(3-Fluorophenyl)-2,6-dimethyl-4-(5-methyl-7H-pyrrolo[2,3-d]pyrimidin-4-yl)-3,6-dihydropyridine-1(2H)-carboxamide]	46.6	103	59	36	90.3	90.3	81			inhibition at 25 µM [3]: 93.3%
Cc1c[nH]c2ncnc(C3=CC(C)N(C(=O)Nc4cccc(Cl)c4)C(C)C3)c12 (centres unmarked) [Compound 58, N-(3-Chlorophenyl)-2,6-dimethyl-4-(5-methyl-7H-pyrrolo[2,3-d]pyrimidin-4-yl)-3,6-dihydropyridine-1(2H)-carboxamide]								34	32	inhibition at 25 µM [1, 12]: 91.4%; inhibition at 25 µM [1, 13]: 91.4%; inhibition at 25 µM [2, 14]: 77.3%
Cc1c[nH]c2ncnc(C3=CC(C)N(C(=O)Nc4cccc(Br)c4)C(C)C3)c12 (centres unmarked) [Compound 59, N-(3-Bromophenyl)-2,6-dimethyl-4-(5-methyl-7H-pyrrolo[2,3-d]pyrimidin-4-yl)-3,6-dihydropyridine-1(2H)-carboxamide]								34	40	inhibition at 25 µM [1, 12]: 93.6%; inhibition at 25 µM [1, 13]: 93.6%; inhibition at 25 µM [2, 14]: 74.7%
Cc1c[nH]c2ncnc(C3=CC(C)N(C(=O)Nc4cccc(Oc5ccccc5)c4)C(C)C3)c12 (centres unmarked) [Compound 60, 2,6-Dimethyl-4-(5-methyl-7H-pyrrolo[2,3-d]pyrimidin-4-yl)-N-(3-phenoxyphenyl)-3,6-dihydro pyridine-1(2H)-carboxamide]										% inhibition (ROCK1) 1 uM (ROCK1): 11%; % inhibition (ROCK2) 1 uM (ROCK2): 7%; % inhibition Cofilin phosphorylation HeLa cells treated 2 h with 25 uM of inhibitor ([1]; HeLa cells, 25 uM): 94.2%; % inhibition of cofilin phosphorylation in HeLa cells (treatment 2 h, at 25 μM) [1, 15]: 94.2%; % inhibition Cofilin phosphorylation MPNST88-14 cells treated 2 h with 25 uM of inhibitor ([2]; MPNST88-14 cells, 25 uM): 74.5%; % inhibition Cofilin phosphorylation MPNST90-8 cells treated 2 h with 25 uM of inhibitor [3]: 81.1%
O=C(Nc1cccc(F)c1)N1CC=C(c2ncnc3[nH]c4c(c23)CCC4)CC1 [Compound 110, N-(3-Fluorophenyl)-4-(5,6,7,8-tetrahydrocyclopenta[4,5]pyrrolo[2,3-d]pyrimidin-4-yl)-3,6-dihydropyridine-1(2H)-carboxamide]	5	41	3	9	79	79				later development of the disease phenotype and endpoint of the disease (survival) [4]: do not observed improvement; loss of weight [4]: significant effect on delaying; onset of motor symptoms (early Neuroscore stages and first time decay in the rotarod test) [4]: significant effect on delaying
O=C(Nc1cccc(Cl)c1)N1CC=C(c2ncnc3[nH]c4c(c23)CCCC4)CC1 [Compound 114, N-(3-Chlorophenyl)-4-(6,7,8,9-tetrahydro-5H-pyrimido[4,5-b]indol-4-yl)-3,6-dihydropyridine-1(2H)-carboxamide]	9.98	25.5			89.3	89.3	74.7	4	8	
CN(C)C(=O)Oc1cccc(NC(=O)N2CC=C(c3ncnc4[nH]c5c(c34)CCC5)CC2)c1 [Compound 122, 3-(4-(5,6,7,8-Tetrahydrocyclopenta[4,5]pyrrolo[2,3-d]pyrimidin-4-yl)-1,2,3,6-tetrahydropyridine-1-carboxamido)phenyl dimethyl carbamate]	7.11	4.02								% inhibition (ROCK1) 1 uM (ROCK1): 4%; % inhibition (ROCK2) 1 uM (ROCK2): 14%; % inhibition Cofilin phosphorylation HeLa cells treated 2 h with 25 uM of inhibitor ([1]; HeLa cells, 25 uM): 81.3%; % inhibition of cofilin phosphorylation in HeLa cells (treatment 2 h, at 25 μM) [1, 15]: 81.3%; % inhibition Cofilin phosphorylation MPNST90-8 cells treated 2 h with 25 uM of inhibitor [3]: 65.6%
O=C(Nc1cccc(Oc2ccccc2)c1)N1CC=C(c2ncnc3[nH]c4c(c23)CCC4)CC1 [Compound 125, N-(3-Phenoxyphenyl)-4-(5,6,7,8-tetrahydrocyclopenta[4,5]pyrrolo[2,3-d]pyrimidin-4-yl)-3,6-dihydropyridine-1(2H)-carboxamide]	29	28.5	10	-2	81.4	81.4	80.8			inhibition at 25 µM [3]: 76.1%
O=C(Nc1cccc(F)c1)N1CC=C(c2ncnc3[nH]c4c(c23)CSCC4)CC1 [Compound 154, N-(3-Fluorophenyl)-4-(5,7,8,9-tetrahydrothiopyrano[3′,4′:4,5]pyrrolo[2,3-d]pyrimidin-4-yl)-3,6-dihydropyridine-1(2H)-carboxamide]	52.7	78.6	5	7		66.9	57.7			
O=C(Nc1cccc(Cl)c1)N1CC=C(c2ncnc3[nH]c4c(c23)CSCC4)CC1 [Compound 155, N-(3-Chlorophenyl)-4-(5,7,8,9-tetrahydrothiopyrano [3′,4′:4,5]pyrrolo[2,3-d]pyrimidin-4-yl)-3,6-dihydropyridine-1(2H)-carboxamide]	94.1	94.2				72.8	57.7	10	14	
O=C(Nc1cccc(Br)c1)N1CC=C(c2ncnc3[nH]c4c(c23)CSCC4)CC1 [Compound 156, N-(3-Bromophenyl)-4-(5,7,8,9-tetrahydrothiopyrano [3′,4′:4,5]pyrrolo[2,3-d]pyrimidin-4-yl)-3,6-dihydropyridine-1(2H)-carboxamide]								3	15	Ki (LIMK1): 41.4 nM; Ki (LIMK2): 31.5 nM; inhibition at 25 µM [1, 12]: 68.2%; inhibition at 25 µM [2, 14]: 61.6%
O=C(Nc1cccc(F)c1)N1CC=C(c2ncnc3[nH]c4c(c23)COCC4)CC1 [Compound 157, N-(3-Fluorophenyl)-4-(5,7,8,9-tetrahydropyrano[3′,4′:4,5]pyrrolo[2,3-d]pyrimidin-4-yl)-3,6-dihydropyridine-1(2H)-carboxamide]	172	319	7	-1	79.5	79.5	56.5			
O=C(Nc1cccc(Cl)c1)N1CC=C(c2ncnc3[nH]c4c(c23)COCC4)CC1 [Compound 158, N-(3-Chlorophenyl)-4-(5,7,8,9-tetrahydropyrano[3′,4′:4,5]pyrrolo[2,3-d]pyrimidin-4-yl)-3,6-dihydropyridine-1(2H)-carboxamide]	65.6	93				65.3	59.8	2	1	
O=C(Nc1cccc(Br)c1)N1CC=C(c2ncnc3[nH]c4c(c23)COCC4)CC1 [Compound 159, N-(3-Bromophenyl)-4-(5,7,8,9-tetrahydropyrano[3′,4′:4,5]pyrrolo[2,3-d]pyrimidin-4-yl)-3,6-dihydropyridine-1(2H)-carboxamide]								11	3	Ki (LIMK1): 51 nM; Ki (LIMK2): 51.5 nM; inhibition at 25 µM [1, 12]: 70.3%; inhibition at 25 µM [2, 14]: 64.3%
Cc1c[nH]c2ncnc(C3=CCN(C(=O)Nc4cccc(OCC5CCC(F)(F)CC5)c4)CC3)c12 [Compound 191, N-(3-((4,4-difluorocyclohexyl)methoxy)phenyl)-4-(5-methyl-7H-pyrrolo[2,3-d]pyrimidin-4-yl)-3,6-dihydropyridine-1(2H)-carboxamide]	85.5	217	72	57	87					
Cc1cc(C(=O)Nc2cccc(C(=O)Nc3cccc(C(F)(F)F)c3)c2)on1 [Compound T56-LIMKi]										EC50 (MPNST cell line): ~20000 nM
CC(C)C(=O)Nc1ncc(-c2cc(C(F)F)nn2-c2c(Cl)cccc2Cl)s1 [LIMKi3]										EC50 (HeLa cells): 9000 nM
Cc1c[nH]c2ncnc(N3CCC(CN)(C(=O)Nc4cccc(OC(=O)N(C)C)c4)CC3)c12 [LX7101, reference compound]					85.1					Ki (LIMK1 and LIMK2): 3.9 nM
